No end group written: not given here.
How the values were obtained:
isolated rat heart = assay: Modified BNPsp peptides, preconditioning in isolated rat heart (Example 6: 40 min global ischemia, 90 min reperfusion); settings: preconditioned 30 minutes with 0.3 nmol/L; n=3
Experimental: This set of experiments assessed modified BNPsp(17-26) peptides. This experiment repeated the preconditioning work outlined in the isolated rat heart model Examples, but with C-terminal ablated and an N-terminal extended version of BNPsp(17-26). Hearts were preconditioned with 30 minute doses of 0.3 nmol/L BNPsp(16-26) and BNPsp(17-24) prior to 40 minutes of global ischemia and 90 minutes reperfusion. Cardiac contractile and perfusion pressure indices were recorded.

normal, healthy sheep = settings: in vivo
Description: Such a response is indicative of a well tolerated agent. […] This is a favourable profile in normal health.

in vivo = settings: sheep, iv
Experimental: In this set of experiments, four normal healthy sheep were infused with human BNPsp(17-26) at 100-1000 ug/kg·min−1 to document any effects upon normal blood pressure, heart rate or renal function. This experiment was carried out to determine achieved circulating levels of BNPsp(17-26) in response to the dose given and to document any significant effects upon haemodynamic, renal or hormonal indices.

Sequence	haemodynamic protective profile (developed pressure) (isolated rat heart)	haemodynamics, renal function or circulating biomarkers (normal, healthy sheep)	half-life (in vivo)
LHLAFLGG (listed as Homo sapiens) [BNPsp(17-24), modified peptide with two C-terminal amino acids removed]	protective effect	–	–
LHLAFLGGRS [BNPsp(17-26), LHLAFLGGRS]	–	no detectable changes	< 1 min

Source: patent publication US9783574B2, “Cardiovascular therapeutics” (Otago Innovation Limited, priority 2011, dated 2017)
